In patent US20080045499A1, “Preferential Inhibition of Presenilin-1” (Elan Pharmaceuticals, Inc., priority 2006, published 2008):
Read-outs that look alike come from different tables or passages of the source.

Tests used:
[1] = test system: Presenilin-1-comprised γ-secretase relative to Presenilin-2-comprised γ-secretase; assay: PS1/PS2 selectivity: ratio of EC50 in Presenilin-2 and Presenilin-1 transfected cells; format: cell-based, human; conditions: for PS2/PS1 EC50 ratio: EC50 of Presenilin-2 transfected cells over Presenilin-1 transfected cells
Excerpt: (§1) EC50 values were derived by curve fitting of Aβ1-x levels, for samples treated with various concentrations of gamma secretase inhibitors, with XLfit software program (IDBS, Alameda, Calif., USA). Differences in EC50 values obtained for Presenilin-1 transfected cells and Presenilin-2 transfected cells exposed to a test compound served as an indicator of differential inhibition.
Cell culture medium is then removed from the transfected cell lines and analyzed for Aβ1-x levels by ELISA assay, as described in Example 1. ELISA assays are performed using ELISA plates coated with the mAb 266 to capture Aβ peptides and then by detecting Aβ peptides with biotinylated mAb 3D6. EC50 values are derived for all of the test compounds. Differences in EC50 values obtained for Presenilin-1 transfected cells and Presenilin-2 transfected cells exposed to a test compound serve as an indicator of differential inhibition.
For example, several tested compounds are sulfonamide compounds, while several are non-sulfonamide compounds. The ratio of the EC50 value obtained for Presenilin-2 transfected cells and Presenilin-1 transfected cells (indicated in the last column of Table I) indicates the degree to which the test compound is capable of preferentially inhibiting Presenilin-1. […] In Table 2, the values shown in columns A, B and C are EC50 values (nM). Where inhibition was very low, EC50 values were not generated by the program; thus EC50 values are not provided. Rather, percent of inhibition was estimated based on the inhibition curve generated by the program. Percentages indicate percentage inhibition at a compound concentration of 10 uM. […]

[2] = target: T1, Presenilin-2-comprised γ-secretase (Homo sapiens, UniProt P49810); assay: Aβ1-x ELISA in Presenilin-2 transfected PS1/PS2 double knockout mouse fibroblasts; format: cell-based; conditions: for inhibition at 10 µM: compound concentration of 10 uM, estimated from the inhibition curve
T1 construct: expressed in transfected cells; host or cells: mouse fibroblasts derived from PS1/PS2 double knockout cells, pCF vector
Excerpt: (§2) A131-x represents any Aβ peptides longer than Aβ1-23, including Aβ38, Aβ40, and Aβ42, since Aβ1-x is defined operationally by an ELISA assay using proprietary antibody mAb 266 for capture and proprietary antibody mAb 3D6 for detection. The epitope for mAb266 is Aβ16-23, and the epitope for mAb 3D6 is Aβ1-5. […] Aβ40 ELISA employed antibodies mAb 266 as capture and 2G3 (specific for Ab40) as detection, respectively. Furthermore, Aβ42 ELISA employed antibodies mAb 266 as capture and 21F12 as detection, respectively. Hybridomas producing antibodies against Aβ16-23 were generated by standard murine fusion procedures as detailed in Kohler and Milstein (Nature 256:495 1975) and U.S. Pat. No. 4,666,829 which are hereby incorporated by reference in their entireties. See also “Detailed Description” herein. Briefly, two BALB/c mice immunized with Aβ13-28 conjugated to 2C-11 (a T-cell receptor monoclonal antibody) were sacrificed and the spleens removed. Mixed splenocytes were obtained by pressing the spleens through a 30 mesh stainless steel screen. These were fused with P3X63Ag8 murine myeloma cells (aminopterin sensitive) at a fusion ratio of 10:1 in 35% polyethylene-glycol. These cells were plated out in 96 well tissue culture plates in the presence of 2×10^6 thymocytes/ml. Hybridomas were selected for by growing the cells in the presence of aminopterin poisoned Dulbecco's modified Eagle's media augmented with hypoxanthine, thymine and 10% fetal bovine serum. Hybridomas were screened for reactivity against Aβ13-28 and AAP protein via ELISA. Positive clones were sub-cloned twice. Aliquots of the clones were frozen and stored in liquid nitrogen. Supernatants from positive clones were produced in large quantities for further purification of monoclonal antibodies.
(§3) For ELISA assays, each well of 96-well ELISA plates was coated with 100 μl of 10 μg/ml 266 in Well Coating Buffer (pH 8.5) at 4 degrees overnight, and blocked with 0.25% human BSA solution at 25 degrees for 120 minutes. The plate can be used directly without wash, after removing blocking solution.
(§4) ELISA assays were performed at room temperature. Fifty μl of conditioned medium from overnight culture of transfected cells, with or without gamma secretase inhibitors, were added to each well of ELISA plates, and incubated for 1 hour. After washing plates with Tris-buffered saline (TBS) plus 0.05% Tween-20, 50 μl biotinylated 3D6 antibody at 0.5 μg/ml was added to each well and incubate for 45 minutes. […] Next, plates were washed with Tris-buffered saline (TBS) plus 0.05% Tween-20, and 50 μl substrate (1-step slow TMB-Elisa, Pierce, Woburn, Mass., USA, catalogue number: 34024) was added to each well and incubated for 15 min. Finally, substrate reactions were terminate by adding to each well 15 ul 2 NH2SO4, and OD readings were obtained on SpectraMax Plus (Molecular Devices, Sunnyvale, Calif., USA). The Aβ concentration of samples was then obtained by comparing sample OD readings to those of standards.
as §1
(§5) Transfected mouse fibroblasts derived from the PS1/PS2 double knockout cells are grown at 37 degree under 10% CO2 in Dulbecco's modified Eagle's medium (DMEM) containing 2-10% fetal bovine serum (FBS) and 100 μg/ml penicillin/streptomycin (Pen/Strp) (Invitrogen Corporation, Carlsbad, Calif., USA).
(§6) Cell culture medium is then removed from the transfected cell lines and analyzed for Aβ1-x levels by ELISA assay, as described in Example 1. ELISA assays are performed using ELISA plates coated with the mAb 266 to capture Aβ peptides and then by detecting Aβ peptides with biotinylated mAb 3D6.

[3] = test system: 293sw; assay: 293sw IC50 of gamma-secretase inhibitors; format: cell-based
[4] = target: T2, Presenilin-1-comprised γ-secretase (Homo sapiens, UniProt P49768); assay: Aβ1-x ELISA in Presenilin-1 transfected PS1/PS2 double knockout mouse fibroblasts; format: cell-based
T2 construct: expressed in transfected cells; host or cells: mouse fibroblasts derived from PS1/PS2 double knockout cells, pCF vector
Excerpt: as §2, §3, §4, §1, §5, §6

[5] = column A, read-out: PS2 percentage inhibition, column A
[6] = column B, read-out: PS2 percentage inhibition, column B
[7] = column A, Aβ1-x, Presenilin-1 transfected cells, overnight, read-out: PS1 EC50 (nM) A
[8] = column B, Aβ1-x, Presenilin-1 transfected cells, overnight, read-out: PS1 EC50 (nM) B
[9] = column A, Aβ1-x, Presenilin-2 transfected cells, overnight, read-out: PS2 EC50* (nM) A
[10] = column B, Aβ1-x, Presenilin-2 transfected cells, overnight, read-out: PS2 EC50* (nM) B
[11] = column C, Aβ1-x, Presenilin-2 transfected cells, overnight, read-out: PS2 EC50* (nM) C
[12] = column C, Aβ1-x, Presenilin-1 transfected cells, overnight, read-out: PS1 EC50 (nM) C
[13] = mean values from 2 independent experiments (FIG. 11)

SMILES | PS2/PS1 EC50 ratio [1] | IC50 [3] [nM] | EC50 [4, 7] [nM] | EC50 [4, 8] [nM] | EC50 [2, 9] [nM] | EC50 [2, 10] [nM] | other results
O=C1NCCCC[C@H]1N(CCCN1C(=O)c2ccccc2C1=O)S(=O)(=O)c1ccc(Cl)cc1 | >10 | 221 | 3720 | 6960 | – | – | inhibition at 10 µM [2, 5]: 28%; inhibition at 10 µM [2, 6]: 4%
Cc1nc(-c2ccc(CN([C@@H]3CCCCNC3=O)S(=O)(=O)c3ccc(Cl)cc3)cc2)no1 | 8 | 44 | 105 | 98 | 750 | 809 | –
Cn1nnc2cc(CN([C@@H]3CCCCNC3=O)S(=O)(=O)c3ccc(Cl)s3)ccc21 | 47 | 775 | 122 | 87 | 6410 | 5310 | EC50 [2, 11]: 3000 nM; EC50 [4, 12]: 102 nM
O=C1NCCCC[C@H]1N(Cc1ccc(-c2ncon2)cc1)S(=O)(=O)c1ccc(Cl)cc1 | 12 | 16 | 20 | 5.9 | 175 | 156 | EC50 [2, 11]: 263 nM; EC50 [4, 12]: 26 nM
COc1ccc(CN(C2CCCCC2C)S(=O)(=O)c2ccc(Cl)cc2)cc1OC (stereo not drawn) | 10 | 55 | 49 | 48 | 606 | 404 | –
O=C1NCCCC[C@H]1N(Cc1cnc(N2CCCCC2)s1)S(=O)(=O)c1ccc(Cl)cc1 | ˜30 | 121 | 370 | 263 | – | – | inhibition at 10 µM [2, 5]: 47%; inhibition at 10 µM [2, 6]: 44%
C[C@H](c1ccc(F)cc1CCCC(=O)O)N(c1cc(F)ccc1F)S(=O)(=O)c1ccc(Cl)cc1 [reference compound] | 12 | – | 21 | 17 | 223 | 247 | –
O=C1NCCCC[C@H]1N(C/C=C/c1cccnc1)S(=O)(=O)c1ccc(Cl)cc1 | 61 | 42 | 46 | 65 | 4000 | 2780 | –
O=C1NCCCC[C@H]1N(Cc1cc2ccccc2o1)S(=O)(=O)c1ccc(Cl)cc1 | 46 | – | 30 | 63 | 2420 | 1880 | EC50 [2, 11]: 2380 nM; EC50 [4, 12]: 50 nM
O=C1NCCCC[C@H]1N(Cc1ccc(Br)cc1)S(=O)(=O)c1ccc(Cl)cc1 | 15 | 243 | 106 | 259 | 1920 | 3410 | EC50 [4, 12]: 159 nM
Cn1nnc2cc(CN([C@@H]3CCCCNC3=O)S(=O)(=O)c3ccc(Cl)cc3)ccc21 | 15 | 51 | 40 | 75 | 589 | 924 | EC50 [4, 12]: 42 nM
COc1ccc(CN(C2CC(C)CCC2C)S(=O)(=O)c2ccc(Cl)cc2)cc1 (stereo not drawn) | 22 | 176 | 136 | 161 | 3000 | 3460 | –
COc1ccc(CN(C2CCCCNC2=O)S(=O)(=O)c2ccc(Cl)cc2)cc1OC (stereo not drawn) | ˜30 | – | 228 | 425 | – | – | inhibition at 10 µM [2, 5]: 45%; inhibition at 10 µM [2, 6]: 50%
C[C@H](NC(=O)Cc1cc(F)cc(F)c1)C(=O)N[C@H](C(=O)OC(C)(C)C)c1ccccc1 [DAPT, reference compound] | – | – | – | – | – | – | fold more selective for PS2 [1, 13]: 2 fold
CC(C)C[C@H](NC(=O)[C@H](Cc1ccccc1)C[C@@H](O)[C@H](Cc1ccccc1)NC(=O)OC(C)(C)C)C(=O)N[C@@H](Cc1ccccc1)C(N)=O [L-685,458, reference compound] | – | – | – | – | – | – | fold more selective for PS1 [1, 13]: ~3 fold
C[C@H](NC(=O)[C@@H](O)c1cc(F)cc(F)c1)C(=O)N[C@@H]1C(=O)N(C)c2ccccc2-c2ccccc21 | – | 0.064 | – | – | – | – | –
COc1ccc(CN([C@H]2CCCCNC2=O)S(=O)(=O)c2ccc(Cl)cc2)cc1OC | – | 10000 | – | – | – | – | EC50 ([2]; column A, bound given in μM, read-out: PS2 EC50 A): > 10000 nM; EC50 ([2]; column B, bound given in μM, read-out: PS2 EC50 B): > 10000 nM; EC50 ([4]; column A, bound given in μM, read-out: PS1 EC50 A): > 10000 nM; EC50 ([4]; column B, bound given in μM, read-out: PS1 EC50 B): > 10000 nM
C[C@H](NC(=O)c1ccc(CN([C@@H]2CCCCNC2=O)S(=O)(=O)c2ccc(Cl)cc2)cc1)c1ccccc1 | 4 | – | 143 | 139 | 465 | 777 | –
